Source: patent US9822124B2, “Bicyclic heteroaromatic carboxamide compounds useful as Pim kinase inhibitors” (Incyte Corporation, priority 2014, dated 2017)

Assays:
Format in all cases: biochemical
Pim-1 = Pim-1 (Homo sapiens (Human), UniProt P11309); test: Pim-1 kinase assay (AlphaScreen, Biotin-labeled BAD peptide substrate); conditions: 1 mM ATP; read-out: Pim1 IC50
Procedure: (§1) Pim-1 and Pim-3 kinase assays—20 μL reactions were run in white 384 well polystyrene plates dotted with 0.8 μL compound/DMSO in the assay buffer (50 mM Tris, pH 7.5, 0.01% Tween-20, 5 mM MgCl2, 0.01% BSA, 5 mM DTT), containing 0.05 μM Biotin-labeled BAD peptide substrate (AnaSpec 62269), 1 mM ATP, and […] (Pim-1, Invitrogen PV3503) or […] (Pim-3, Millipore 14-738) enzyme for 1 h at 25° C. Reactions were stopped by addition of 10 μL STOP Buffer (150 mM Tris, pH=7.5, 150 mM NaCl, 75 mM EDTA, 0.01% Tween-20, 0.3% BSA) supplemented with Phospho-Bad (Ser112) Antibody (Cell Signaling 9291) diluted 666-fold, and Streptavidin donor beads (PerkinElmer 6760002) along with Protein-A acceptor beads (PerkinElmer 6760137) at 15 μg/mL each. Supplementation of the STOP buffer with beads and stopping the reactions were done under reduced light. Prior to the stopping reactions STOP buffer with beads was preincubated for 1 h in the dark at room temperature. After stopping the reactions, plates were incubated for 1 h in the dark at room temperature before reading on a PHERAstar FS plate reader (BMG Labtech) under reduced light.

Pim-2 = Pim-2 (Homo sapiens (Human), UniProt Q9P1W9); test: Pim-2 kinase assay (TR-FRET, Fluorescein-labeled CREBtide peptide substrate); conditions: 1 mM ATP; read-out: Pim2 IC50
Chain of Pim-2 (Q9P1W9 whole entry): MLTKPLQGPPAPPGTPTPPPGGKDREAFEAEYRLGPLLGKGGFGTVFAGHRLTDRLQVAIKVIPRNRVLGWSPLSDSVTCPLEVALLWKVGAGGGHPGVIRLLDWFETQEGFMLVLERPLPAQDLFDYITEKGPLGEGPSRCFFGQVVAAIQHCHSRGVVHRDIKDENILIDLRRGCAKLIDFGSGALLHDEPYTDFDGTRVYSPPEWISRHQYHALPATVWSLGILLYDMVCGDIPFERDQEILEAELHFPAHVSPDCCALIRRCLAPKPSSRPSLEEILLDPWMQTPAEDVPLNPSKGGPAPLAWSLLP
Procedure: Pim-2 kinase assay—20 μL reactions were run in white 384 well polystyrene plates dotted with 0.8 μL compound/DMSO in the assay buffer (50 mM Tris, pH 7.5, 0.01% Tween-20, 5 mM MgCl2, 0.01% BSA, 5 mM DTT), containing 0.05 μM Fluorescein-labeled CREBtide peptide substrate (Invitrogen PV3508), 1 mM ATP, and 1 nM enzyme (Invitrogen PV3649) for 2 h at 25° C. Reactions were stopped by addition of 10 μL TR-FRET Dilution Buffer (Invitrogen PV3574) with 30 mM EDTA and 1.5 nM LanthaScreen Tb-CREB pSer133 antibody (Invitrogen PV3566). After 30 min. incubation at room temperature, plates were read on a PHERAstar FS plate reader (BMG Labtech).

Pim-3 = Pim-3 (Homo sapiens (Human), UniProt Q86V86); test: Pim-3 kinase assay (AlphaScreen, Biotin-labeled BAD peptide substrate); conditions: 1 mM ATP; read-out: Pim3 IC50
Procedure: as §1

Chain of Pim-1 (P11309 whole entry): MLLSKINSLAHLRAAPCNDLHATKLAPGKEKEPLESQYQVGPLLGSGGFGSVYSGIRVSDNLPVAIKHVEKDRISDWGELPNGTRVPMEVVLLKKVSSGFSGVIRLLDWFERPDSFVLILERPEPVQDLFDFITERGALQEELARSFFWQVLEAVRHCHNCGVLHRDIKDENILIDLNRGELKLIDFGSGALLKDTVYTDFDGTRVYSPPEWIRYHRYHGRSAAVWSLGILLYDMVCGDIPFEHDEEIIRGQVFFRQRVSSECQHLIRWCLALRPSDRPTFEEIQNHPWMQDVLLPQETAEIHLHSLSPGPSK

Structure (SMILES) | IC50 (Pim-1) [nM] | IC50 (Pim-2) [nM] | IC50 (Pim-3) [nM]
Cc1cc2nc(C(=O)Nc3cnccc3N3C[C@H](C)C[C@H](N)C3)ccc2s1 [Example 61, N-(4-((3S,5R)-3-Amino-5-methylpiperidin-1-yl)pyridin-3-yl)-2-methylthieno[3,2-b]pyridine-5-carboxamide] | ≤ 10 | 100 to 1000 | ≤ 10
C[C@@H]1C[C@H](N)CN(c2ccncc2NC(=O)c2ccc3sc(C4CC4)cc3n2)C1 [Example 59, N-(4-((3S,5R)-3-Amino-5-methylpiperidin-1-yl)pyridin-3-yl)-2-cyclopropylthieno[3,2-b]pyridine-5-carboxamide] | ≤ 10 | ≤ 100 | ≤ 10
COc1ccc(F)c(-c2csc3ccc(C(=O)Nc4cnccc4N4C[C@H](C)C[C@H](N)C4)nc23)c1F [Example 64, N-(4-((3S,5R)-3-Amino-5-methylpiperidin-1-yl)pyridin-3-yl)-3-(2,6-difluoro-3-methoxyphenyl)thieno[3,2-b]pyridine-5-carboxamide] | ≤ 10 | 100 to 1000 | 10 to 50
COc1cc(F)c(-c2cc3nc(C(=O)Nc4cnccc4N4C[C@@H](N)[C@H](O)[C@@H](C)C4)ccc3s2)c(F)c1 [Example 45, N-(4-((3R,4R,5S)-3-Amino-4-hydroxy-5-methylpiperidin-1-yl)pyridin-3-yl)-2-(2,6-difluoro-4-methoxyphenyl)thieno[3,2-b]pyridine-5-carboxamide] | ≤ 10 | 100 to 1000 | ≤ 10
C[C@@H]1C[C@H](N)CN(c2ccncc2NC(=O)c2ccc3sc(-c4ccccc4)cc3n2)C1 [Example 58, N-(4-((3S,5R)-3-Amino-5-methylpiperidin-1-yl)pyridin-3-yl)-2-phenylthieno[3,2-b]pyridine-5-carboxamide] | ≤ 10 | 100 to 1000 | ≤ 10
C[C@H]1CN(c2ccncc2NC(=O)c2ccc3cc([C@@H]4C[C@@H]4C)oc3n2)C[C@@H](N)[C@@H]1O (racemic) [Example 73, N-{4-[(3R,4R,5S)-3-Amino-4-hydroxy-5-methylpiperidin-1-yl]pyridin-3-yl}-2-(cis-2-methylcyclopropyl)furo[2,3-b]pyridine-6-carboxamide] | ≤ 10 | ≤ 100 | ≤ 10
CC(C)c1cc2nc(C(=O)Nc3cnccc3N3C[C@H](C)C[C@H](N)C3)ccc2o1 [Example 2, N-{4-[(3S,5R)-3-Amino-5-methylpiperidin-1-yl]pyridin-3-yl}-2-isopropylfuro[3,2-b]pyridine-5-carboxamide] | 10 to 50 | 100 to 1000 | ≤ 10
C[C@H]1CN(c2ccncc2NC(=O)c2ccc3sc(Cc4ccccc4)cc3n2)C[C@@H](N)[C@@H]1O [Example 42, N-(4-((3R,4R,5S)-3-Amino-4-hydroxy-5-methylpiperidin-1-yl)pyridin-3-yl)-2-benzylthieno[3,2-b]pyridine-5-carboxamide] | ≤ 10 | 100 to 1000 | ≤ 10
CCc1coc2ccc(C(=O)Nc3cnccc3N3C[C@@H](N)[C@H](O)[C@@H](C)C3)nc12 [Example 15, N-(4-((3R,4R,5S)-3-Amino-4-hydroxy-5-methylpiperidin-1-yl)pyridin-3-yl)-3-ethylfuro[3,2-b]pyridine-5-carboxamide] | ≤ 10 | ≤ 100 | ≤ 10
C[C@H]1CN(c2ccncc2NC(=O)c2ccc3sc(-c4cnn(C)c4)cc3n2)C[C@@H](N)[C@@H]1O [Example 48, N-(4-((3R,4R,5S)-3-Amino-4-hydroxy-5-methylpiperidin-1-yl)pyridin-3-yl)-2-(1-methyl-1H-pyrazol-4-yl)thieno[3,2-b]pyridine-5-carboxamide] | ≤ 10 | ≤ 100 | ≤ 10
CCCc1cc2nc(C(=O)Nc3cnccc3N3C[C@H](C)C[C@H](N)C3)ccc2s1 [Example 50, N-(4-((3S,5R)-3-Amino-5-methylpiperidin-1-yl)pyridin-3-yl)-2-propylthieno[3,2-b]pyridine-5-carboxamide] | ≤ 10 | ≤ 100 | ≤ 10
C[C@@H]1C[C@H](N)CN(c2ccncc2NC(=O)c2ccc3occ(-c4cncnc4)c3n2)C1 [Example 30, N-(4-((3S,5R)-3-Amino-5-methylpiperidin-1-yl)pyridin-3-yl)-3-(pyrimidin-5-yl)furo[3,2-b]pyridine-5-carboxamide] | 10 to 50 | > 2000 | > 40
CC(C)c1cc2nc(C(=O)Nc3cnccc3N3C[C@H](C)C[C@H](N)C3)ccc2s1 [Example 51, N-(4-((3S,5R)-3-Amino-5-methylpiperidin-1-yl)pyridin-3-yl)-2-isopropylthieno[3,2-b]pyridine-5-carboxamide] | ≤ 10 | ≤ 100 | ≤ 10
C[C@@H]1C[C@H](N)CN(c2ccncc2NC(=O)c2ccc3sc(-c4ccccc4F)cc3n2)C1 [Example 53, N-(4-((3S,5R)-3-Amino-5-methylpiperidin-1-yl)pyridin-3-yl)-2-(2-fluorophenyl)thieno[3,2-b]pyridine-5-carboxamide] | ≤ 10 | 100 to 1000 | ≤ 10
C[C@@H]1C[C@H](N)CN(c2ccncc2NC(=O)c2ccc3occ(C4=COCCC4)c3n2)C1 [Example 33, N-(4-((3S,5R)-3-Amino-5-methylpiperidin-1-yl)pyridin-3-yl)-3-(3,4-dihydro-2H-pyran-5-yl)furo[3,2-b]pyridine-5-carboxamide] | ≤ 10 | ≤ 100 | ≤ 10
C[C@@H]1C[C@H](N)CN(c2ccncc2NC(=O)c2ccc3occ(-c4cnn(C)c4)c3n2)C1 [Example 29, N-(4-((3S,5R)-3-Amino-5-methylpiperidin-1-yl)pyridin-3-yl)-3-(1-methyl-1H-pyrazol-4-yl)furo[3,2-b]pyridine-5-carboxamide] | ≤ 10 | 1000 to 10000 | 10 to 50
C[C@@H]1C[C@H](N)CN(c2ccncc2NC(=O)c2ccc3oc(-c4ccc(N5CCOCC5)nc4)cc3n2)C1 [Example 5, N-(4-((3S,5R)-3-Amino-5-methylpiperidin-1-yl)pyridin-3-yl)-2-(6-morpholinopyridin-3-yl)furo[3,2-b]pyridine-5-carboxamide] | ≤ 10 | 1000 to 10000 | ≤ 10
C[C@@H]1C[C@H](N)CN(c2ccncc2NC(=O)c2ccc3sc(C4CC4)nc3n2)C1 [Example 80, N-(4-((3S,5R)-3-Amino-5-methylpiperidin-1-yl)pyridin-3-yl)-2-cyclopropylthiazolo[4,5-b]pyridine-5-carboxamide] | ≤ 10 | 100 to 1000 | ≤ 10
C[C@H]1CN(c2ccncc2NC(=O)c2ccc3sc(-c4ccc(N5CCOCC5)nc4)cc3n2)C[C@@H](N)[C@@H]1O [Example 44, N-(4-((3R,4R,5S)-3-Amino-4-hydroxy-5-methylpiperidin-1-yl)pyridin-3-yl)-2-(6-morpholinopyridin-3-yl)thieno[3,2-b]pyridine-5-carb oxamide] | ≤ 10 | 100 to 1000 | ≤ 10
C[C@@H]1C[C@H](N)CN(c2ccncc2NC(=O)c2ccc3occ(C4CCOC4)c3n2)C1 (mixture of isomers) [Example 31, N-(4-((3S,5R)-3-Amino-5-methylpiperidin-1-yl)pyridin-3-yl)-3-(tetrahydrofuran-3-yl)furo[3,2-b]pyridine-5-carboxamide] | ≤ 10 | 100 to 1000 | ≤ 10
C[C@H]1CN(c2ccncc2NC(=O)c2ccc3sc(-c4ccccc4)cc3n2)C[C@@H](N)[C@@H]1O [Example 46, N-(4-((3R,4R,5S)-3-Amino-4-hydroxy-5-methylpiperidin-1-yl)pyridin-3-yl)-2-phenylthieno[3,2-b]pyridine-5-carboxamide] | ≤ 10 | 100 to 1000 | ≤ 10
COc1cncc(-c2coc3ccc(C(=O)Nc4cnccc4N4C[C@H](C)C[C@H](N)C4)nc23)c1 [Example 32, N-(4-((3S,5R)-3-Amino-5-methylpiperidin-1-yl)pyridin-3-yl)-3-(5-methoxypyridin-3-yl)furo[3,2-b]pyridine-5-carboxamide] | ≤ 10 | 1000 to 10000 | ≤ 10
C[C@@H]1C[C@H](N)CN(c2ccncc2NC(=O)c2ccc3cc([C@@H]4C[C@H]4C)oc3n2)C1 (racemic) [Example 76, N-{4-[(3S,5R)-3-Amino-5-methylpiperidin-1-yl]pyridin-3-yl}-2-(trans-2-methylcyclopropyl)furo[2,3-b]pyridine-6-carboxamide] | ≤ 10 | ≤ 100 | ≤ 10
